Experimental data taken from PubChem BioAssay (NCI).
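Following 48 hours of exposure in 96-well plates, responses at five concentrations were used to interpolate endpoints linearly. GI50 marks 50% less growth. At the TGI there is no net growth.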

Key:
Assay in all cases: NCI-60 cell line screen, 48 h
HCT-116 colon = test system: HCT-116 colon
HOP-62 NSCLC = test system: HOP-62 NSCLC
KM12 colon = test system: KM12 colon
LOX IMVI melanoma = test system: LOX IMVI melanoma
M14 melanoma = test system: M14 melanoma
MOLT-4 leukemia = test system: MOLT-4 leukemia
PC-3 prostate = test system: PC-3 prostate
SF-268 CNS = test system: SF-268 CNS
SW-620 colon = test system: SW-620 colon
UACC-62 melanoma = test system: UACC-62 melanoma

Row | SMILES | TGI (HCT-116 colon) [µM] | TGI (HOP-62 NSCLC) [µM] | TGI (KM12 colon) [µM] | TGI (LOX IMVI melanoma) [µM] | TGI (M14 melanoma) [µM] | TGI (MOLT-4 leukemia) [µM] | TGI (PC-3 prostate) [µM] | TGI (SF-268 CNS) [µM] | TGI (SW-620 colon) [µM] | TGI (UACC-62 melanoma) [µM] | GI50 (HCT-116 colon) [µM] | GI50 (HOP-62 NSCLC) [µM] | GI50 (KM12 colon) [µM] | GI50 (LOX IMVI melanoma) [µM] | GI50 (M14 melanoma) [µM] | GI50 (MOLT-4 leukemia) [µM] | GI50 (PC-3 prostate) [µM] | GI50 (SF-268 CNS) [µM] | GI50 (SW-620 colon) [µM] | GI50 (UACC-62 melanoma) [µM]
1 | CC1CCC(=O)C(C(=O)CC2CC(=O)NC(=O)C2)C1 (stereo not drawn) | > 100 | > 100 | > 100 | > 100 | > 100 | > 100 | > 100 | > 100 | > 100 | > 100 | – | – | – | – | – | – | – | – | – | –
2 | C=C1C(=O)O[C@H]2/C=C(/C)C3=CC(=O)[C@@](C)(C[C@@H](OC(=O)/C(C)=C\C)C12)O3 (stereo partly drawn) | 1.11 | > 100 | 9.5 | 1.14 | > 28.8 | 6.01 | 8.78 | > 46.5 | – | 3.36 | – | – | – | – | – | – | – | – | – | –
3 | C=C1C(=O)O[C@H]2[C@H]1CC/C(COC(=O)c1ccc(Cl)nc1)=C\CC[C@@]1(C)O[C@@H]21 | 2.84 | 26.3 | 16.7 | 3.33 | 4.02 | 7.2 | 23.1 | 9.49 | 2.96 | 3.74 | 1.45 | 11 | 3.96 | 1.58 | 1.71 | 2.57 | 10.2 | 2.62 | 1.23 | 1.63
4 | Cn1cc(C2=C(c3cn(CCCCCN)c4ccccc34)C(=O)NC2=O)c2ccccc21 | > 16.7 | > 25 | > 25 | 13.5 | > 25 | > 22.9 | > 25 | > 25 | > 25 | > 25 | 5.85 | 15.2 | 17.8 | 4.9 | 12.4 | 8.09 | 13.8 | 12.5 | 9.64 | 10.3
5 | CCOC(=O)CNC(=O)c1ccccc1Nc1ccnc(C(F)(F)F)c1 | > 69.8 | > 69.6 | > 86 | 36.2 | > 74.9 | 54.3 | > 95.5 | > 71.6 | > 74.4 | > 61.2 | 30.5 | 39.6 | 30.2 | 17.5 | 38.1 | 17.7 | 25.4 | 35.7 | 29.9 | 22.4
6 | COc1cc2ncn(-c3cc(OCCc4ccccc4)c(C(N)=O)s3)c2cc1OC | > 25 | > 25 | > 25 | > 25 | > 25 | > 25 | > 25 | > 25 | > 25 | > 25 | 24.6 | > 25 | 18.9 | > 25 | > 25 | 12.4 | > 25 | > 25 | > 25 | > 25
7 | COc1ccc(-c2c[nH]c(=S)n2-c2ccc(OC)cc2)cc1 | > 50 | > 50 | > 50 | > 50 | – | > 50 | > 50 | > 50 | > 50 | > 50 | > 50 | > 50 | > 50 | > 50 | – | > 50 | > 50 | > 50 | > 50 | > 50
8 | COc1ccc2c(O)cc3c(c2c1)[C@H](CCl)CN3C(=O)c1cc2cc(NC(=O)CCN3CCOCC3)ccc2[se]1 | > 3.25 | 2.03 | – | 0.0101 | – | > 3.34 | 0.0699 | 0.0946 | 1.05 | < 0.001 | < 0.001 | < 0.001 | < 0.001 | < 0.001 | – | < 0.001 | < 0.001 | < 0.001 | < 0.001 | < 0.001
9 | CC(=O)O[C@H](C[C@H](C(C)C)N(C)C(=O)[C@@H](NC(=O)[C@H]1CCCCN1C)C(C)C)c1nc(C(=O)N[C@@H](Cc2ccccc2)C[C@H](C)C(=O)O)c(CCOCc2ccccc2)s1 | 0.176 | > 10 | – | > 10 | – | > 10 | > 10 | > 10 | > 10 | > 10 | < 0.001 | < 0.001 | < 0.001 | < 0.001 | – | < 0.001 | < 0.001 | < 0.001 | < 0.001 | < 0.001
10 | COc1ccc2c(c1)[C@@]13CCCC[C@H]1[C@@H](C2)N(C)CC3=O | 29.7 | > 100 | 33.6 | 30.9 | 31 | > 100 | 29 | 35.8 | – | 32.7 | – | – | – | – | – | – | – | – | – | –
11 | Cc1cc(C2CC(O)C(CO)O2)cc2c(=O)[nH]c(N)nc12 (stereo not drawn) | > 100 | > 100 | – | > 100 | > 100 | > 100 | > 100 | > 100 | > 100 | > 100 | > 100 | > 100 | – | > 100 | > 100 | > 100 | > 100 | > 100 | > 100 | > 100
